Data as given in publication PMC8091166 (Journal of the American Chemical Society, 2017).

Assays:
HeLa cells [1] = test: MTT assay, in vitro anticancer activity in HeLa cells
[2] = Capacity factor on a C18 RP-HPLC column; type: physicochemical; details: isocratic 40:60 MeCN:H2O, 0.1% TFA; for MeCN Complex Capacity Factor: MeCN adduct of the complex
[3] = test system: mitochondrial membrane potential (MMP) in HeLa cells; test: JC-1 assay; type: cell-based; details: 13 at 5 or 10 μM
[4] = test system: intracellular reactive oxygen species (ROS) in HeLa cells; test: ROS analysis with DCFDA and flow cytometry; type: cell-based; details: DCFDA
HeLa cells [5] = test: Annexin V/PI assay; type: cell-based
[6] = test system: A549 lung cancer cell line; test: Cell viability in A549 cells; type: cell-based
[7] = test system: PARP, cleaved PARP, LC3, ERK, p-ERK in HeLa cells; test: Western blot analysis of protein expression; type: cell-based
[8] = test system: A549 CisR cisplatin-resistant lung cancer cell line; test: Cell viability in A549 CisR cells; type: cell-based
HeLa cells [9] = test: Cell viability in the presence of inhibitors; type: cell-based; details: 15 μM Z-VAD-FMK
[10] = test system: H460 lung cancer cell line; test: Cell viability in H460 cells; type: cell-based
[11] = test system: A2780CP70 cisplatin-resistant ovarian cancer cell line; test: Cell viability in A2780CP70 cells; type: cell-based
[12] = test system: H460 CisR cisplatin-resistant lung cancer cell line; test: Cell viability in H460 CisR cells; type: cell-based
[13] = test system: KBCP20 cisplatin-resistant cervical cancer cell line; test: Cell viability in KBCP20 cells; type: cell-based
HeLa cells [14] = test: Cell cycle analysis; type: cell-based
[15] = test system: A2780 ovarian cancer cell line; test: Cell viability in A2780 cells; type: cell-based
[16] = test system: KB-3-1 cervical cancer cell line; test: Cell viability in KB-3-1 cells; type: cell-based
[17] = test system: MRC-5 normal lung fibroblasts; test: Cell viability in MRC-5 cells; type: cell-based

## O.[C-]#[O+].[C-]#[O+].[C-]#[O+].[Re+].c1ccc(-c2ccnc3c2ccc2c(-c4ccccc4)ccnc23)cc1 [Complex 14]
HeLa cells [1]
  relative cytotoxicity among the complexes: substantially diminished relative to that of 13
[2]
  MeCN Complex Capacity Factor: >17

## carbonyl cyanide m-chlorophenyl hydrazine [CCCP]
[3]
  depolarization of the MMP (JC-1 aggregates): substantial reduction in the number of JC-1 aggregates

## OO [Complex H2O2, H2O2]
[4]
  increase in the intracellular ROS: greater than 30 fold

## COc1cc([C@@H]2c3cc4c(cc3[C@@H](O[C@@H]3O[C@@H]5CO[C@@H](C)O[C@H]5[C@H](O)[C@H]3O)[C@H]3COC(=O)[C@H]23)OCO4)cc(OC)c1O [etoposide]
HeLa cells [5]
  effect of pan-caspase inhibitor Z-VAD-FMK in the annexin V assay: reduce the apoptotic population

## COC(=O)c1ccnc(-c2cc(C(=O)OC)ccn2)c1.O.[C-]#[O+].[C-]#[O+].[C-]#[O+].[Re+] [Complex 11]
HeLa cells [1]
  relative cytotoxicity among the complexes: least active
[2]
  MeCN Complex Capacity Factor: 8.2
  Aqua Complex Capacity Factor: 4.2

## N.N.[Cl][Pt][Cl] [Cisplatin, cisplatin]
[6]
  IC50: 3 ± 1.8 µM
[7]
  expression levels of PARP, cleaved PARP, LC3, ERK, p-ERK: induced the increase of cleaved PARP levels
[8]; A549 CisR cells
  IC50: 12.4 ± 8.5 µM
[8]; IC50 in A549 CisR divided by IC50 in A549
  RF (A549), resistance factor: 4.1
HeLa cells [9]
  change of IC50 in the presence of Z-VAD-FMK: increased by a factor of four
[10]
  IC50: 0.75 ± 0.43 µM
[11]; A2780CP70 cells
  IC50: 8.2 ± 1.8 µM
[11]; IC50 in A2780CP70 divided by IC50 in A2780
  RF (A2780), resistance factor: 36
[12]; H460 CisR cells
  IC50: 3.4 ± 1.6 µM
[12]; IC50 in H460 CisR divided by IC50 in H460
  RF (H460), resistance factor: 4.5
[13]
  IC50: 36 ± 7 µM
HeLa cells [1]; read-out: 50% growth inhibitory concentration (IC50), MTT assay
  IC50: 3 ± 1.2 µM
HeLa cells [14]
  cell cycle arrest phase: inhibits cells predominantly in the S-phase
[15]
  IC50: 0.23 ± 0.07 µM
[16]
  IC50: 1 ± 0.3 µM
[17]
  IC50: 0.43 ± 0.14 µM
